pIC50: −log10 of the molar value.
What was measured:
[1] = test system: central nervous system (CNS) metastases; assay: Phase 1 trial: intracranial efficacy (RANO-BM); type: in vivo, human; settings: for Intracranial lesion reduction: case, KIF5B-RET NSCLC, 160 mg BID
Description: Ongoing assessments are underway to gain a more comprehensive understanding of its intracranial efficacy.

[2] = test system: Baf3-CCDC6-RET V804M cells; assay: Proliferation assay (CellTiter-Glo); type: cell-based, murine; settings: Mus musculus, read-out: Cellular Viability IC50
Method: (§1) The cell lines HEK293T, Baf3, TT cell and NIH-3T3 were obtained from the Cell Resource Center, Peking Union Medical College (PCRC). HEK293T and NIH-3T3 were maintained in DMEM high glucose medium (#C3113-0500, Vivacell) supplemented with 10 % FBS (#10500064, Gibco) and 1 % Penicillin-Streptomycin (#15140122, Gibco). The murine Pro‐B cell line Baf3 was cultured in RPMI 1640 medium (#C3010, Vivacell) supplemented with 10 % FBS, 1 % Penicillin-Streptomycin and 1 ng/mL recombinant murine interleukin-3 (#213-13, PeproTech). All stably transformed BaF3 cells were cultured in RPMI 1640 without IL‐3. The TT MTC cell was grown in Ham's F-12K medium (#21127022, Gibco) supplemented with 10 % FBS and 1 % Penicillin-Streptomycin. Cells were cultured at 37 °C under 5 % CO2 and high humidity conditions.
(§2) KIF5B-RET, CCDC6-RET and mutations were cloned into pCDHL vector and were verified by sequencing. Reah RET expression vectors were separately co‐transfected with psPAX2 and pMD2.G packaging plasmids into 60-70% confluent HEK 293T cells maintained in 2 mL of culture medium in six‐well plates using Polyethyleneimine (PEI) transfection grade. Virus containing media was harvested after 48 h and filtered with 0.45 μm membrane and stored at -80 °C prior to infection. For infection of Ba/F3 cells, 1 mL of viral supernatant and 8 μg/mL polybrene were added to 5 million cells per well in six‐well plates. Infected cells were selected with the addition of 1 μg/mL puromycin for 2 weeks in RPMI-1640/ 10% FBS/ 1 ng/mL IL-3 medium. Subsquently, puromycin-resistant cells were cultured in IL-3-free medium for 1 week and RET fusion proteins were confirmed by immunoblot analysis.
(§3) Cell viability was assessed by luminescence using CellTiter-Glo 2.0 assay (Promega). IC50 curve fitting was performed using GraphPad Prism 9.0.

Baf3-KIF5B-RET WT cells = assay: Proliferation assay (CellTiter-Glo); type: cell-based, murine; settings: Mus musculus, read-out: Cellular Viability IC50
Method: as §1, §2, §3

[3] = test system: Baf3-KIF5B-RET M918T cells; assay: Proliferation assay (CellTiter-Glo); type: cell-based, murine; settings: Mus musculus, read-out: Cellular Viability IC50
Method: as §1, §2, §3

[4] = test system: Baf3-CCDC6-RET M918T cells; assay: Proliferation assay (CellTiter-Glo); type: cell-based, murine; settings: Mus musculus, read-out: Cellular Viability IC50
Method: as §1, §2, §3

Baf3-CCDC6-RET WT cells = assay: Proliferation assay (CellTiter-Glo); type: cell-based, murine; settings: Mus musculus, read-out: Cellular Viability IC50
Method: as §1, §2, §3

[5] = test system: Chinese hamster ovary cells; assay: In vitro chromosome aberration test; type: cell-based
[6] = test system: RET signaling in BaF3-CCDC6-RET^V804M/M918T cells; assay: RET signaling pathway phosphorylation in cells; type: cell-based

In the case of COc1ccc(CN2C3CC2CN(c2ccc(-c4cc(N5CC(C)(O)C5)cn5ncc(C#N)c45)cn2)C3)cn1 [SY-5007, 6-(3-hydroxy-3-methylazetidin-1-yl)-4-(6-(6-((6-methoxypyridin-3-yl)methyl)-3,6-diazabicyclo[3.1.1]heptan-3-yl)pyridin-3-yl)pyrazolo[1,5-a]pyridine-3-carbonitrile], the “Intracranial ORR” value ([1]; 2/3 patients with measurable CNS metastases) was 66.7%, the “Intracranial DCR” value ([1]; 3/3 patients) was 100.0% and the Intracranial lesion reduction ([1]; after 4 weeks) was 40.7%. For the same compound, the Intracranial lesion reduction ([1]; after 12 weeks) was 56.5%, the pIC50 [2] was 7.57 and the pIC50 (Baf3-KIF5B-RET WT cells) was 8.02. It also gave a pIC50 [3] of 7.87, a pIC50 [4] of 8.26 and a pIC50 (Baf3-CCDC6-RET WT cells) of 7.99. The “Chromosome aberration test result” value [5] was “negative”, the Concentration of saturation [6] was 100 nM and the “Concentration with significant inhibitory effect on RET signaling” value [6] was 10 nM.

Reference: PMC11532403 (Signal Transduction and Targeted Therapy, 2024)
